What all share (assay type): in vivo
For assay [1], the system named is anesthetized normotensive dogs. Briefly: renal dopamine-like activity by infusion in anesthetized normotensive dogs. Conditions: for ED15: Canis lupus familiaris, iv, infusion, anesthetized normotensive dogs. The procedure:
In the test procedure for determining renal dopamine-like activity by infusion in anesthetized normotensive dogs, 6 - chloro - 7,8 - dihydroxy - 1 - (p - hydroxyphenyl) - 2,3,4,5 - tetrahydro - 1 H - 3 - benzazepine has an ED15 of 0.3 µg/kg. The details of the test procedure are presented in the literature references mentioned above. The tri-O-acetyl derivative of this compound has an ED1. of 25 µg/kg, and the tri-O-isobutyryl derivative has an ED15 of 16 µg/kg. Other compounds of Formula I having renal dopaminergic activity can be used by comparing their activity in the anesthetized dog protocol with that of the above specifically named compound in preparing hypotensively effective and non-toxic dosage regimens. For example, referring to compounds of the Formula I in which R is H: […]
The renal dopaminergic ED1. values given above for the infused anesthetized dog are useful to assess quantitative and qualitative biological properties of the 1 - hydroxyphenyl - 7,8 - dihydroxy - 2,3,4,5 - tetrahydro - 1 H - 3 - benzazepine compounds of Formula I. These compounds are preferably given by oral administration. They are rapidly absorbed from the gastrointestinal tract, and have a relatively short half life in vivo. Therefore, the renal dopaminergic agent must be matched with conventional dosage regimens of the diuretic agents considering the pharmacokinetic properties of each active component. This may be accomplished by combining the renal dopaminergic agent with a diuretic in standard dosage unit forms for administration from 2-6 times daily. This would be most suitable when the diuretic agent is of a short acting nature and conventionally multiple daily doses are used to give the desired maintenanance level.

In assay [2] the test system is glucose-infused unanesthetized dog. Briefly: renal clearance study in the glucose-infused unanesthetized dog. To be noted: single dose, benzazepine salt alone, glucose-infused dog protocol.
Assay [3] has as its system phosphate mannitol infused dog. Briefly: renal clearance study in the phosphate-mannitol infused dog. To be noted: change from control, triamterene 10 mg. p.o., benzazepine 2.5 mg. p.o. From the text:
Mannitol itself has some proximal natriuretic effect which tends to screen any synergistic effect of the combination. […] In the parameters presented, the control figures are actual values. Phase II, III and IV are changes from control.

For assay [4], the system named is glucose-infused unanesthetized dog. The assay can be described thus: renal clearance study in the glucose-infused unanesthetized dog. Conditions: hydrochlorothiazide 2.5 mg/kg i.v. then 3.0 mg/kg/hr infusion. The procedure:
In the glucose-infused unanesthetized dog, 6 - chloro - 7,8 - dihydroxy - 1 - (p - hydroxyphenyl) 2,3,4,5 - tetrahydro - 1 H - 3 - benzazepine methyl sulfonate was given at the peak time of natriureses established by a maximally effective dose of hydrochlorothiazide.
All dogs were given an oral water load of 3% of body weight of tap water thirty minutes prior to initiation of the experiment. Using a constant infusion pump the dogs were infused intravenously at 3 ml/min. throughout the course of the experiment, with a 5% dextrose solution containing 3.0 mg/kg/hr of hydrochlorothiazide (HCTZ). Glomerular filtration rate was determined by the clearance of creatinine and effective renal plasma flow by the clearance of p-aminohippuric acid (PAH). […] The solution also contained 0.02% ascorbic acid. Suitable plasma levels of creatinine and p-aminohippuric acid were obtained by a twenty minute infusion of this solution to obtain equilibrium prior to starting of the initial urine collection. […] 1.5 ml/kg of a 1% creatinine solution in saline was also injected intravenously fifteen minutes prior to the start of the collection of urine. Replicate urine collections were obtained at ten minute intervals throughout the experiment. The bladder was emptied by an indwelling catheter and complete urine collections were measured by rinsing the bladder with 10 ml of water at the end of each collection interval, followed by an air wash-out. Venous blood samples were drawn from an indwelling catheter at the mid-point of each clearance period.
Plasma and urine osmolalities were determined by freezing point depression on freshly obtained samples. Urine volume and pH were recorded at the time of collection. Plasma and urine samples were stored frozen after collection, until analyzed. Analysis for sodium and potassium were made using the flame. photometer, and for chloride, creatinine, and p-aminohippuric acid, by colorimeter, using standard methodologies. These analyses were made simultaneously on each sample. Peak intensities were identified electronically, recorded by "on-line" teletype, stored and subsequently analyzed mathematically by time-shared computer against appropriate standards. Data were computed from linear least square regression lines and quality control standards were analyzed simultaneously to evaluate system reproducibility and reliability.
In the experiments where hydrochlorothiazide alone was given, twelve clearances were obtained. […] In the combination study the benzazepine was given by stomach tube at 5.0 mg/kg (base) after Ca, The compound was solubilized in water with a small amount of sugar syrup to prevent or minimize emesis. Clearances C7-C'2 (treatment) as in the hydrochlorothiazide alone tests, were taken with no wait between C6 and C7. Five dogs were used with both hydrochlorothiazide and with the combination.

The mark [5] stands for this setting: individual dog, difference between averages of C1—C6 and C7—C12.

“And” between values parts separate entries of the source, which are not always exact repeats. Equal values may be shown once. Read-outs that look alike come from different tables or passages of the source. Marks after values point to notes of the source that are not given here.

For the compound `C=CCN1CCc2c(cc(O)c(O)c2Cl)C(c2ccc(O)cc2)C1` (centres unmarked), in assay [1] (0.3 ug/kg/min infusion rate), the renal dopaminergic activity entry is given as “demonstrated activity”.

For `CS(=O)(=O)O.Oc1ccc(C2CNCCc3c2cc(O)c(O)c3Cl)cc1` (centres unmarked) [6 - Chloro - 7,8 - dihydroxy - 1 - (4 - hydroxyphenyl) - 2,3,4,5 - tetrahydro - 1H - 3 - benzazepine methyl sulphonic acid salt], the diuretic effect entry in assay [2] is recorded as “no diuretic effect”.

On to `Oc1ccc(C2CNCCc3c2cc(O)c(O)c3Cl)cc1` (centres unmarked) [6 - chloro - 7,8 - dihydroxy - 1 - (p - hydroxyphenyl) - 2,3,4,5 - tetrahydro - 1 H - 3 - benzazepine], for which the ED15 in assay [1] (read-out: ED15) came out at 0.3 µg/kg. Also, the “Glomerular Filtration Rate” value in assay [3] (Phase II) is 1; in assay [3] (Phase III), −2; in assay [3] (Phase IV), −2. Besides, the “Potassium Execretion” value in assay [3] (Phase II) is reported as −0.93**; in assay [3] (Phase III) it was −1.59; in assay [3] (Phase IV) it was 2.02.

Consider `Oc1cccc(C2CNCCc3c2cc(O)c(O)c3Cl)c1` (centres unmarked) [A, 6 - chloro - 7,8 - dihydroxy - 1 - (3 - hydroxyphenyl) - 2,3,4,5 - tetrahydro - 1 H - 3 - benzazepine], for which the ED15 in assay [1] (read-out: ED15) came out at 0.35 µg/kg.

For the compound `Oc1ccc(C2CNCCc3c2cc(O)c(O)c3Br)cc1` (centres unmarked) [B], the ED15 in assay [1] (read-out: ED15) was 5 µg/kg.

Consider `Cc1c(O)c(O)cc2c1CCNCC2c1ccc(O)cc1` (centres unmarked) [C, 6 - methyl - 7,8 - dihydroxy - 1 - (4 - hydroxyphenyl) - 2,3,4,5 - tetrahydro - 1 H - 3 - benzazepine], for which, in assay [1] (read-out: ED15), the ED15 was 2.8 µg/kg.

Regarding `Oc1ccc(C2CNCCc3c(Cl)c(O)c(O)c(Cl)c32)cc1` (centres unmarked) [D, 6,9 - dichloro - 7,8 - dihydroxy - 1 - (4 - hydroxyphenyl) - 2,3,4,5 - tetrahydro - 1H - 3 - benzazepine], the ED15 in assay [1] (read-out: ED15) turned out to be 620 µg/kg.

Consider `Cc1c(O)c(O)c(Cl)c2c1CCNCC2c1ccc(O)cc1` (centres unmarked) [E], for which the ED15 in assay [1] (read-out: ED15) worked out at 30 µg/kg.

On to `Oc1ccc(C2CNCCc3c2cc(O)c(O)c3I)cc1` (centres unmarked) [F], for which the ED15 in assay [1] (read-out: ED15) was 4.2 µg/kg.

As for `COC(=O)c1c(O)c(O)cc2c1CCNCC2c1ccc(O)cc1` (centres unmarked) [G, 6 - carbomethoxy - 7,8 - dihydroxy - 1 - (4 - hydroxyphenyl) - 2,3,4,5 - tetrahydro - 1H - 3 - benzazepine], the ED15 in assay [1] (read-out: ED15) was found to be 2.3 µg/kg.

`NS(=O)(=O)c1cc2c(cc1Cl)NCNS2(=O)=O` [Hydrochlorothiazide, hydrochlorothiazide]: in assay [4] (Average of five dogs), the “Filtration Fraction Δ” value was “−.012”, the “Glomerular Filtration Rate (GFR) Δ % Change” value is −2.4%, the “Ranal Plasma Flow (RPF) Δ % Change” value is reported as “+2.6%” and the “Δ % Na^+ Excreted” value is given as −0.82%. Also, in assay [4] (setting [5]), the “Filtration Fraction Δ” value was “−.01 and 0 and +.01 and −.03 (2×)”; the “Glomerular Filtration Rate (GFR) Δ % Change” value was −6% and +6% and −7% and 0% and −5%; the “Ranal Plasma Flow (RPF) Δ % Change” value is −1% and +6% and −10% and +7% and +11%; the “Δ % Na^+ Excreted” value is −1.1% (2×) and −0.8% and −0.5% and −0.6%.

For `Nc1nc(N)c2nc(-c3ccccc3)c(N)nc2n1` [Triamterene, triamterene], the “Glomerular Filtration Rate” value in assay [3] (Phase II) is given as −3; in assay [3] (Phase III), −15; in assay [3] (Phase IV) it was −15**. In addition, the “Potassium Execretion” value in assay [3] (Phase II) is −3.65; in assay [3] (Phase III), −5.44; in assay [3] (Phase IV), −5.61.

Turning to `CC(=O)Oc1ccc(C2CNCCc3c2cc(OC(C)=O)c(OC(C)=O)c3Cl)cc1` (centres unmarked) [tri-O-acetyl derivative, 6 - chloro - 7,8 - diacetoxy - 1 - (4 - acetoxyphenyl) 2,3,4,5 - tetrahydro - 1H - 3 - benzazepine], in assay [1] (read-out: ED1.), the ED15 was found to be 25 µg/kg.

As for `CC(C)C(=O)Oc1ccc(C2CNCCc3c2cc(OC(=O)C(C)C)c(OC(=O)C(C)C)c3Cl)cc1` (centres unmarked) [tri-O-isobutyryl derivative], in assay [1] (read-out: ED15), the ED15 is 16 µg/kg.
